The source of these data is publication PMC3004914, “Classification of Drugs Based on Properties of Sodium Channel Inhibition: A Comparative Automated Patch-Clamp Study” (PLoS ONE, 2010).

The target in series [1] is T1, rNav1.2 sodium channels (HEK-293 cells) (Rattus norvegicus, UniProt P04775). As to the kind of experiment: 5 Hz train protocol, QPatch automated patch-clamp.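 On UD (use-dependence of the inhibition): UD = (A3/A4)/(A1/A2) as ratios of peak amplitudes from Figure 1A.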 The series is classed as cell-based. Particulars: for Rev (reversibility): Rev = A5/A1 after washout; for potency: in words; for inhibition at 30 µM: −90 mV holding potential, read-out: Inh (inhibited fraction). In short, it runs like this:
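rNav1.2 in stable HEK-293 cells, QPatch whole-cell; 5 Hz trains of five pulses from −90 to −10 mV, repeated every 20 s; 10 control trains, 10 with drug, then washout. Inhibition of peak current at a single concentration gave IC50; reversibility, use-dependence and τoff also derived.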

In series [2] the target is T1, rNav1.2 sodium channels (HEK-293 cells). Description: steady-state inactivation protocol (availability curves), QPatch automated patch-clamp. The class given is cell-based. To be noted: for inhibition at 300 µM: HEK293, read-out: Inh (inhibited fraction) at holding potential −150 mV. In short, it runs like this:
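HEK-293 cells stably expressing rat Nav1.2, recorded by automated patch clamp in extracellular solution pH 7.3 containing CdCl2 and TEA. Availability measured with 400 ms pre-pulses from −150 to −30 mV, then a 10 ms test pulse to −10 mV. Kr, Ki (four-state model) and Kr/Ki state-dependence derived from inhibition and ΔV1/2.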

For series [3], the system named is sodium channels. Particulars: cited from earlier work.
Series [4] addresses sodium channels. To be noted: averaged literature data, cited from earlier work; for Ki: read-out: Ki−Lit; for Kd: read-out: Kr−Lit.
The conditions of series [5]: human plasma, cited from earlier work.
[6] abbreviates: 300 μM, 3 s assigned where too short to be resolved.
Setting [7] is: HEK293, read-out: IC50, calculated from Inh at single concentration 300 μM, −90 mV, 5 Hz train.
[8] abbreviates: HEK293, read-out: Inh (inhibited fraction).
[9] abbreviates: arithmetic mean, 300 µM, read-out: Ki-Kapp arith.
Where [10] appears, read: arithmetic mean, 300 µM, read-out: Ki-ΔV1/2 arith.
Setting [11] is: arithmetic mean, 300 µM, read-out: Kr arith.
Setting [12] is: geometric mean, from Inh at −150 mV, 300 µM, read-out: Kr (resting state affinity).
[13] abbreviates: geometric mean, from apparent affinity, 300 µM, read-out: Ki−Kapp (inactivated state affinity).
Where [14] appears, read: geometric mean, from shift of availability curve, 300 µM, read-out: Ki−ΔV1/2 (inactivated state affinity).
Where [15] appears, read: 30 μM, 500 s assigned where irreversible.
[16] abbreviates: HEK293, calculated from Inh at single concentration 30 μM, −90 mV, 5 Hz train, read-out: IC50.

Several values for one entry are separate records, joined by “and”; a condition that tells them apart may be missing. Identical values can stand only once. Like-named read-outs stand apart in the source and are kept apart here.

T1 sequence (P04775 whole entry): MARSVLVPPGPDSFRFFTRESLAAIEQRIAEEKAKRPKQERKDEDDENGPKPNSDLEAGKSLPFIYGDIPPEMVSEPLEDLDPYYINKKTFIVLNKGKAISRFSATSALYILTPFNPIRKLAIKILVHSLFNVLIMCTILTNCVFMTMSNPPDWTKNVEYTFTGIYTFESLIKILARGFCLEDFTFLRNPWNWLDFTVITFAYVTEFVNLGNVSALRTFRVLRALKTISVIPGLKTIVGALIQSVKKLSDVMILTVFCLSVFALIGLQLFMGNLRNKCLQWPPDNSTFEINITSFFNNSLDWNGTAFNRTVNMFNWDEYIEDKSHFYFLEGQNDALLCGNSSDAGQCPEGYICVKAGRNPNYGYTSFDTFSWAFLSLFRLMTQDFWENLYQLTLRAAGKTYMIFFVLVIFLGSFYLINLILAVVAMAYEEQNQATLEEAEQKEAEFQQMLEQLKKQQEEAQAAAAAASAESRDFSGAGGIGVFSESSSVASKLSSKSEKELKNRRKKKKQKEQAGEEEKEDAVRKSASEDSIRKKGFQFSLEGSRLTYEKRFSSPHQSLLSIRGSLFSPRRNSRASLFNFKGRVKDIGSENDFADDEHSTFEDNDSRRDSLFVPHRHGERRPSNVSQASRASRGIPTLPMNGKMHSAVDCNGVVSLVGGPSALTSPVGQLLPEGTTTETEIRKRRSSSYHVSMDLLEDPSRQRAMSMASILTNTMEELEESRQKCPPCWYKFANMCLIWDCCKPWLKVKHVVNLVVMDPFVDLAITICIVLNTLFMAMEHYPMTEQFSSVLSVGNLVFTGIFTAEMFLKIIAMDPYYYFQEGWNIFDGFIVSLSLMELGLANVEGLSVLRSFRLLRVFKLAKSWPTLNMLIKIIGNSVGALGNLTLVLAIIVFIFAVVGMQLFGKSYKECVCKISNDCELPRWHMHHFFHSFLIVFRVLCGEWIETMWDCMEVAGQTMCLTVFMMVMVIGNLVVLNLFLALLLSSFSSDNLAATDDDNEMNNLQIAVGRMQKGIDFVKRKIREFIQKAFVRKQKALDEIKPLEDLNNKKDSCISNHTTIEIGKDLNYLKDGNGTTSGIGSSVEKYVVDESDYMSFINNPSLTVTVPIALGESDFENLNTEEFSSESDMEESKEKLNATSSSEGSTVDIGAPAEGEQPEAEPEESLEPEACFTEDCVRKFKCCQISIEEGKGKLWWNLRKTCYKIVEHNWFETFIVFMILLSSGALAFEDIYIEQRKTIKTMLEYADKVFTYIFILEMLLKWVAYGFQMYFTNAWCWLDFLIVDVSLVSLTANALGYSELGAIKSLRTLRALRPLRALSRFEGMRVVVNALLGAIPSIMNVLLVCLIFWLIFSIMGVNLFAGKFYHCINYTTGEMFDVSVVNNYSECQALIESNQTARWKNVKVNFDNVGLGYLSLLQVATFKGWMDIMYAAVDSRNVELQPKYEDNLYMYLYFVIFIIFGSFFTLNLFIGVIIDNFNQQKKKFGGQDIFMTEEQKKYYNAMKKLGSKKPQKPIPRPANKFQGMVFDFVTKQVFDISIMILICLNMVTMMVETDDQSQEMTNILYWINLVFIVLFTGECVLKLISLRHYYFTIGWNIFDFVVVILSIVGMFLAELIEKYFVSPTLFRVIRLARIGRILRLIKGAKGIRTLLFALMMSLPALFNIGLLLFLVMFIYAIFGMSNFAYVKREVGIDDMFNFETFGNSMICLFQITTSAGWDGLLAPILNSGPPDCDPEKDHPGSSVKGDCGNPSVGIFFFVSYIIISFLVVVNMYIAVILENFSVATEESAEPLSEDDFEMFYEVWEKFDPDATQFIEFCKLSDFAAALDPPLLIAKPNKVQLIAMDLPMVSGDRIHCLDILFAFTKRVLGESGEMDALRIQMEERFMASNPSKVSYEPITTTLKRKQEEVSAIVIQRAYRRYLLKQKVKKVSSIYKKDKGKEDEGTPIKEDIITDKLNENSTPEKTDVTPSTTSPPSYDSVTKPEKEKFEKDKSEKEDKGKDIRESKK

As to `CCN(CC)CC(=O)Nc1c(C)cccc1C` [LID, Lidocaine], the τoff in series [1] (300 μM) is given as 6 s. In series [1] (setting [6]), this compound came in with a τon of 3 s. In addition, the “UD (use-dependence of the inhibition)” value in series [1] (300 μM, 5 Hz train) was 1.14. The “Rev (reversibility)” value in series [1] (300 μM) is recorded as 0.95. In addition, the potency estimated from few doses in series [1] (HEK293, read-out: IC50, calculated from Inh at single concentration 100 μM, −90 mV, 5 Hz train) is 1050 µM; in series [1] (setting [7]), 977 µM; in series [1] (HEK293, read-out: IC50, calculated from Inh at single concentration 1000 µM) it was 1270 µM; in series [1] (read-out: IC50, calculated from Inh at single concentration 300 μM, −90 mV, 5 Hz train), 1080 µM. For the same compound, in series [1] (setting [8]), the inhibition at 100 µM came out at 9%. In addition, the figures for the inhibition at 300 µM in series [1] (setting [8]) and in series [2] were 23% and 9%, respectively. For the same compound, the inhibition at 1000 µM in series [1] (setting [8]) was found to be 44%. Besides, in series [1], the potency result was “among the least potent SCIs”. The Ki came to 70.3 µM in series [2] (setting [9]), 114 µM in series [2] (setting [10]), 65.7 µM in series [2] (setting [13]) and 89.6 µM in series [2] (setting [14]). In addition, the figures for the Kd in series [2] (setting [11]) and in series [2] (setting [12]) were 3340 µM and 3190 µM, respectively. For the same compound, the “criterion of at least 60% inhibition at 10 µM concentration” value in series [3] is recorded as “failed to fulfill this criteria”.
`Cc1ccc(-c2nc(C)c(CN3CCN(C(c4ccccc4)c4ccccc4)CC3)[nH]2)cc1` [LIF, Lifarizine]: the “onset and offset kinetics (time constants)” value in series [1] is given as “very slow kinetics”. The τon in series [1] (30 μM) was 96.5 s. In series [1] (30 μM, 5 Hz train), the “UD (use-dependence of the inhibition)” value was found to be 1.02. This compound gave a τoff in series [1] (setting [15]) of 500 s. In addition, the “Rev (reversibility)” value in series [1] (30 μM) amounted to 0.01. Moreover, in series [1] (5 Hz train), the “use-dependence (UD)” value was “no use-dependence”. Further, in series [1] (200 s of washout), the reversibility entry is on record as “apparent irreversibility”. In addition, the inhibition at 30 µM in series [1] (HEK293, 30 μM, 5 Hz train) worked out at 78%. Moreover, in series [1] (setting [16]), the potency estimated from few doses was 5.29 µM. Moreover, in series [1], the potency result is on record as “high potency”. The “ΔV1/2 (shift of availability curve)” value in series [2] (1 µM) is −4.39 mV. For the same compound, in series [2] (HEK293, 1 µM, read-out: Inh (inhibited fraction) at holding potential −150 mV), the inhibition at 1 µM worked out at 2%. The Ki was 0.53 µM in series [2] (arithmetic mean, 1 µM, read-out: Ki-Kapp arith); 0.96 µM in series [2] (arithmetic mean, 1 µM, read-out: Ki-ΔV1/2 arith); 0.5 µM in series [2] (geometric mean, from apparent affinity, 1 µM, read-out: Ki−Kapp (inactivated state affinity)); 0.91 µM and 0.92 µM in series [2] (geometric mean, from shift of availability curve, 1 µM, read-out: Ki−ΔV1/2 (inactivated state affinity)); 0.19 µM in series [4]. For the same compound, the Kd in series [2] (arithmetic mean, 1 µM, read-out: Kr arith) was 63.2 µM; in series [2] (geometric mean, from Inh at −150 mV, 1 µM, read-out: Kr (resting state affinity)) it was 55.8 µM; in series [4] it was 10.2 µM. In addition, the plasma conc. in series [5] (as printed in each cell) was 0.02 [59] µg/ml; in series [5] (as printed in the µg/ml cell), 0.046 µM.
In series [1] (30 μM), `CN(C)CCCN1c2ccccc2Sc2ccc(Cl)cc21` [CPM, Chlorpromazine] showed a τon of 14.81 s. Besides, in series [1] (30 μM, 5 Hz train), the “UD (use-dependence of the inhibition)” value came to 1.30. The compound also returned a τoff in series [1] (setting [15]) of 9.67 s. For the same compound, the “Rev (reversibility)” value in series [1] (30 μM) is 0.07. The inhibition at 30 µM in series [1] (HEK293, 30 μM, 5 Hz train) came out at 41%; in series [2] (HEK293, 30 µM, read-out: Inh (inhibited fraction) at holding potential −150 mV) it was 32%. Moreover, the potency estimated from few doses in series [1] (setting [16]) is 47.3 µM. Also, the “ΔV1/2 (shift of availability curve)” value in series [2] (30 μM) is recorded as −18.4 mV. Further, the Ki in series [2] (arithmetic mean, 30 µM, read-out: Ki-Kapp arith) was 1.03 µM; in series [2] (arithmetic mean, 30 µM, read-out: Ki-ΔV1/2 arith), 0.33 µM; in series [2] (geometric mean, from apparent affinity, 30 µM, read-out: Ki−Kapp (inactivated state affinity)) it was 0.82 µM; in series [2] (geometric mean, from shift of availability curve, 30 µM, read-out: Ki−ΔV1/2 (inactivated state affinity)), 0.29 µM; in series [4] it was 0.19 µM. For the same compound, the Kd in series [2] (arithmetic mean, 30 µM, read-out: Kr arith) was 85.8 µM; in series [2] (geometric mean, from Inh at −150 mV, 30 µM, read-out: Kr (resting state affinity)), 69.6 µM; in series [4], 3.18 µM. For the same compound, the plasma conc. in series [5] (as printed in each cell) was 0.1 [44] µg/ml; in series [5] (as printed in the µg/ml cell), 0.281 µM.
`Nc1nnc(-c2cccc(Cl)c2Cl)c(N)n1` [LTG, Lamotrigine] showed a τoff in series [1] (300 μM) of 18.1 s. For the same compound, the τon in series [1] (setting [6]) stood at 8.19 s. For the same compound, the “UD (use-dependence of the inhibition)” value in series [1] (300 μM, 5 Hz train) worked out at 0.97. Further, the “Rev (reversibility)” value in series [1] (300 μM) came out at 0.85. Also, the potency estimated from few doses in series [1] (setting [7]) was 905 µM. Also, the inhibition at 300 µM in series [1] (setting [8]) is 25%; in series [2] it was 12%. Also, the “ΔV1/2 (shift of availability curve)” value in series [2] (300 μM) is recorded as −10.3 mV. Moreover, the Ki in series [2] (setting [9]) was 40.4 µM; in series [2] (setting [10]), 37.3 µM; in series [2] (setting [13]), 36.7 µM; in series [2] (setting [14]) it was 31.3 µM; in series [4], 15.1 µM. Further, the Kd was 2330 µM in series [2] (setting [11]), 2270 µM in series [2] (setting [12]) and 1560 µM in series [4]. For the same compound, in series [3], the “criterion of at least 60% inhibition at 10 µM concentration” value was “failed to fulfill this criteria”. The plasma conc. in series [5] (as printed in each cell) is 2.5 [44] µg/ml; in series [5] (as printed in the µg/ml cell), 9.762 µM.
